Where two headings read alike, the source gives them in different places.
Legend:
[1] = disclosed in WO 05/058835; cited from earlier work
[2] = Text: FIG. 6B illustrates this method. […] The standard may be prepared by mixing specific amounts of Type C and Form II and determining the X-ray diffraction pattern. This method is also illustrated in FIGS. 6A and B which are used to calculate the ratio between the heights of the peaks in the known mixtures. […] A round aluminum sample holder with zero background was used. […] Running in spin/oscillate mode. All peak positions are reported with an error of ±0.2 degrees two theta.
α1-adrenergic receptor = conditions: cited from earlier work
[3] = target: serotonin 5-HT2A receptor (Homo sapiens, UniProt P28223); conditions: cited from earlier work
Chain of serotonin 5-HT2A receptor (P28223 whole entry): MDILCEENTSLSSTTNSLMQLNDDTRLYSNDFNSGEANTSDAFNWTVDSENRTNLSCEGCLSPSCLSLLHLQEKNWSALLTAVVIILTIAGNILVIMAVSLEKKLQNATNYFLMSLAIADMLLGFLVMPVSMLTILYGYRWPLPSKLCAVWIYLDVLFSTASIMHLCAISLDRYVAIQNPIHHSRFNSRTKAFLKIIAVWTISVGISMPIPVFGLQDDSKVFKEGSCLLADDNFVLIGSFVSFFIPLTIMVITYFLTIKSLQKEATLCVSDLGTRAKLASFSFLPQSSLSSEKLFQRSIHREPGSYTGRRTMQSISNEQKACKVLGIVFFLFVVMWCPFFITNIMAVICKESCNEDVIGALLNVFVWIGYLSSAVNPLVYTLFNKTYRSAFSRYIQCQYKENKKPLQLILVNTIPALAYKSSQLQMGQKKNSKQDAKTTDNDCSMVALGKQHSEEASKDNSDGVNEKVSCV

[4] = test system: cholinergic muscarinic receptors; conditions: cited from earlier work
[5] = target: T1, serotonin 5-HT1A receptor (Homo sapiens, UniProt P08908); conditions: cited from earlier work
T1 sequence (P08908 1-422): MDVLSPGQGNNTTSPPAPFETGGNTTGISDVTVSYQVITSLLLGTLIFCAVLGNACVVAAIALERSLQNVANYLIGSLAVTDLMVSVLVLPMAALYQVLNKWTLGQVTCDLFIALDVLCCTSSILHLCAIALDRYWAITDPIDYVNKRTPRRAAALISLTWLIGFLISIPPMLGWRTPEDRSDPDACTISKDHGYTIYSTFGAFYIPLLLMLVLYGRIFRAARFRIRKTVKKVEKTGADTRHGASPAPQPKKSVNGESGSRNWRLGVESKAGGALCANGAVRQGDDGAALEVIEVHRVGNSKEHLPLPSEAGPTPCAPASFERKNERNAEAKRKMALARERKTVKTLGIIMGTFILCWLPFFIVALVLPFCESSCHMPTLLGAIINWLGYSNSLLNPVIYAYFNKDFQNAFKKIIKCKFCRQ

[6] = target: T2, serotonin 5-HT2C receptor (Homo sapiens, UniProt P28335); conditions: cited from earlier work
T2 sequence (P28335 33-458): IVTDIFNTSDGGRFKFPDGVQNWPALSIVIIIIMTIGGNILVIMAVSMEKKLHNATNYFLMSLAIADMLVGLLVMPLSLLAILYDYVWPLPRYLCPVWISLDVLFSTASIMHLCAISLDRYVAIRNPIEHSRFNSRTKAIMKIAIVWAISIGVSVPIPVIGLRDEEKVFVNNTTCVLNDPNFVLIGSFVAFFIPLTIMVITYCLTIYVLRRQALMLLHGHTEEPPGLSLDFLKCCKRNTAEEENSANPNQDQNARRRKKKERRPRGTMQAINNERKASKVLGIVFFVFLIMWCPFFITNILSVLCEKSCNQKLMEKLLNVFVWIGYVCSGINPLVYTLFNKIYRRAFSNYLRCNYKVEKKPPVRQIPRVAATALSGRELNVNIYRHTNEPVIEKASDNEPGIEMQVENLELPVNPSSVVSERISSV

serotonin reuptake site = serotonin reuptake site (Homo sapiens, UniProt P31645); conditions: cited from earlier work
Chain of serotonin reuptake site (P31645 whole entry): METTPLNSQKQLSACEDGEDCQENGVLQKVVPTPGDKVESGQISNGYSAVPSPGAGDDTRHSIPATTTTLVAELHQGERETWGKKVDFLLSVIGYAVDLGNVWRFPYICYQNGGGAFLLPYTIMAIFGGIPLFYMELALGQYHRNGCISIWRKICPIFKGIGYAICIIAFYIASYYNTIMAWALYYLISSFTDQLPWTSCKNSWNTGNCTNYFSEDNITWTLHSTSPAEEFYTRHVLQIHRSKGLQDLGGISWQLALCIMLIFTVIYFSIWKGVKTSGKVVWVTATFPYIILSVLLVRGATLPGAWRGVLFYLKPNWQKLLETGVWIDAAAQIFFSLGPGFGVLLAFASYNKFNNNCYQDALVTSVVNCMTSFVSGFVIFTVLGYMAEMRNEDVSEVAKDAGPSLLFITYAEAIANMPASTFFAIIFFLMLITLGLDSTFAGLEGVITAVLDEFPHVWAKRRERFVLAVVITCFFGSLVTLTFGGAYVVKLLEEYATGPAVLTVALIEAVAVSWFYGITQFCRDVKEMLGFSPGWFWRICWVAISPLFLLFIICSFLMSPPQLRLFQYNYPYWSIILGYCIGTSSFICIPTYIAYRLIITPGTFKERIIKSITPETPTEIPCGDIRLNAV

histamine H1 receptor = histamine H1 receptor (Homo sapiens, UniProt P35367); conditions: cited from earlier work
Chain of histamine H1 receptor (P35367 whole entry): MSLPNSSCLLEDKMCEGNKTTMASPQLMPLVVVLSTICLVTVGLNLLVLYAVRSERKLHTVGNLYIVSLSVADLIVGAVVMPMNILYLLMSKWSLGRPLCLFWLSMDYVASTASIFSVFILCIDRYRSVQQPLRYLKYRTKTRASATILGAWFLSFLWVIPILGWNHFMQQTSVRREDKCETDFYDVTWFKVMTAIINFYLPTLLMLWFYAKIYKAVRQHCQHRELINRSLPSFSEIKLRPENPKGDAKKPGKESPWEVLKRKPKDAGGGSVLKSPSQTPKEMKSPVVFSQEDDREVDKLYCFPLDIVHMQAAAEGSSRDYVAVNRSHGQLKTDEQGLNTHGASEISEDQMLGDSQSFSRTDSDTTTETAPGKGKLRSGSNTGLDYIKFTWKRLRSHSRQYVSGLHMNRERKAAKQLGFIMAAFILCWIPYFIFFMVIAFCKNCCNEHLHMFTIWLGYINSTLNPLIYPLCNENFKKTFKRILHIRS

[7] = prepared by recrystallization from ethanol or heating hydrate at 80° C; according to WO 03/26659; cited from earlier work
[8] = Example 5 (comparative): centrifugal ball mill, 90 minutes at 580 rpm

Structure (SMILES): O=C1CCc2ccc(OCCCCN3CCN(c4cccc(Cl)c4Cl)CC3)cc2N1 [Aripiprazole Form II, 7-{4-[4-(2,3-dichlorophenyl)-1-piperazinyl]-butoxy}-3,4-dihydro-2(1H)-quinolinone]
- polymorphic transformation on heating [1]: transformation to Type C
- Type C content of milled sample by XRD ([2]; Example 1A: conical mill, 470 micron screen, 4710 rpm): less than 5%
- Type C content of milled sample by XRD ([2]; Example 1B: conical mill, 830 microns screen, 1315 rpm): less than 5 % by weight
- Type C content of milled sample by XRD ([2]; Example 2: ground with mortar and pestle about 1 min): less than 5%
- Type C content of milled sample by XRD ([2]; Example 3A: micronizer, Feeding Air 5.0 bars, Grinding Air 4.0 bars): did not contain Type_C
- Type C content of milled sample by XRD ([2]; Example 3B: micronizer, Feeding Air 3.0 bars, Grinding Air 2.0 bars): did not contain Type_C
- Type C content of milled sample by XRD ([2]; Example 3C: micronizer, 4 kg, Feeding Air 6.0 bars, Grinding Air 5.0 bars): did not contain Type_C
- transformation to Type C by XRD ([2]; Example 4A and 4B: frozen at −10° C. to −20° C. 24 hours, conical mill 470 microns/4710 or 830 microns/1315 rpm): not transformed to Type C
- Type C content after milling by XRD [2, 8]: stark increase in the content of Type C
- crystallinity after milling by XRD [2, 8]: crystallinity of the sample decreased

Structure (SMILES): O=C1CCc2ccc(OCCCCN3CCN(c4cccc(Cl)c4Cl)CC3)cc2N1 [Aripiprazole, 7-{4-[4-(2,3-dichlorophenyl)-1-piperazinyl]-butoxy}-3,4-dihydro-2(1H)-quinolinone]
- affinity for α1-adrenergic receptor (α1-adrenergic receptor): moderate affinity
- affinity for serotonin 5-HT2A receptor [3]: high affinity
- affinity for cholinergic muscarinic receptors [4]: no appreciable affinity
- affinity for serotonin 5-HT1A receptor [5]: high affinity
- affinity for serotonin 5-HT2C receptor [6]: moderate affinity
- affinity for the serotonin reuptake site (serotonin reuptake site): moderate affinity
- affinity for histamine H1 receptor (histamine H1 receptor): moderate affinity

Structure (SMILES): O=C1CCc2ccc(OCCCCN3CCN(c4cccc(Cl)c4Cl)CC3)cc2N1 [anhydride aripiprazole]
- hygroscopicity [7]: significantly hygroscopic

Reference: US20070272777A1 (priority 2005, published 2007)
